Key:
[1] = system: Human primary melanocytes; experiment: Melanin content assay (melanin synthesis inhibition); type: cell-based; conditions: Melanocyte, 72 hours treatment
Method: Human primary melanocytes (Cascade Biologics, now ThermoFisher Scientific) were grown in melanocytes growth medium (MGM) with human melanocyte growth supplement (both media components from ThermoFisher Scientific). Melanocytes were seeded at 5×10^4 cells/well in 24 well-plates and incubated in a humidified incubator at 37° C. with 5% CO2 atmosphere. After 24 hours of incubation, cell cultures were treated with the GAP amino acids or 12- hydroxystearic acid, alone or in combination. The vehicle control consisted of cells treated with the vehicle GAP (0.002 mM NaOH), and/or additional test reagent vehicle, . After treatment, cells were again incubated for 72 hours in a humidified incubator at 37° C. with 5% CO2 atmosphere. At the end of the 72 hour incubation, the culture medium was replaced with 120 uL/well of melanin content assay reagent (10% DMSO in 1M sodium hydroxide) and incubated for 1 hour at 60° C. in a shaker incubator. The supernatant was then transferred to a 384 well plate. The absorbance was measured by spectrophotometric analysis at 405 nm with a micro plate reader (GEnios Pro, Tecan).
The spectrophotometric optical density at 405 nm for untreated cells (no active) was considered as 100% melanin content. Relative melanin content for treated samples was calculated with normalization based on the untreated (media/vehicle) control.

Human Keratinocytes [2] = experiment: Glutathione assay (total glutathione after menadione challenge); type: cell-based
Method: Human Keratinocytes (Promocell, Heidelberg, Germany) were maintained in EpiLife® medium containing 60 uM calcium chloride and 1% Human Keratinocyte Growth Supplement (both media components from ThermoFisher Scientific) in a humidified incubator with an atmosphere containing 5% CO2 at 37° C. The medium was refreshed every 2-3 days. Subsequently, cells were trypsinized at 90% confluency and seeded at a density of 1×10^4 per well into 96-well plates with white wall and clear bottom. One or two days after seeding, cell medium was replaced with Hank's Balanced Salt Solution (HBSS), and keratinocytes were pre-treated with GAP (or 0.12-0.240 mM sodium hydroxide vehicle control, pH 7.5) alone or in combination with additional test reagents described above or L-cystine esters alone for 1-2 hours. The concentration of all amino acids constituting the GAP mixture used in this assay are designated in the data tables, and fully described in the abbreviations list below.
After one or two hours of pre-treatment with GAP or additional test reagents, alone or in combination, keratinocytes were then challenged with 25 uM menadione (Sigma-Aldrich), a known inducer of oxidative stress. After 18-20 hours, cells were harvested and analyzed for total glutathione levels using a commercially available kit (GSH-GSSG GLo Assay, Promega), a luminescence-based system for the detection and quantification of total glutathione in cultured cells. In summary, after cell treatment, the media was removed and replaced with a cell lysis reagent for 5 minutes at 20-25° C.; note, all remaining steps were also conducted at 20-25° C. Next, a luciferase generation reagent was added to each well and incubated for 30 minutes. Following this step, a luciferin detection reagent was added to each well and plates were incubated for 15 minutes. Finally, plates were then read for luminescence in a FlexStation 3 plate reader (Molecular Devices). Total glutathione levels were calculated after interpolation of glutathione concentrations from a standard curve. Experimental conditions were typically conducted in at least triplicate determinations. Statistical significance was calculated using 1-way ANOVA. Percent protection was calculated by using the calculated glutathione levels from each experiment in the following equation: […]

Human Keratinocytes [3] = experiment: Reactive Oxygen Species (ROS) assay; type: cell-based; conditions: 18 hours; for activity at 20 µM / activity at 40 µM / activity at 80 µM / activity at 160 µM: Homo sapiens, Keratinocyte, read-out: ROS inhibition (% of vehicle control); for activity at 20 µM / ROS % Protection (improvement vs. vehicle control + menadione): 20 uM + menadione; for activity at 40 µM: 40 uM + menadione; for activity at 80 µM: 80 uM + menadione; for activity at 160 µM: 160 uM + menadione
Method: Human Keratinocytes (Promocell, Heidelberg, Germany) were maintained in EpiLife® keratinocyte medium containing 60 uM calcium chloride and 1% Human Keratinocyte Growth Supplement (HKGS) in a humidified incubator with an atmosphere containing 5% CO2 at 37° C. The medium was refreshed every other day. Subsequently, cells were trypsinized at 90% confluency and seeded at a density of 1-2×10^4 per well into 96-well plates with black wall and clear bottom. On the second day after seeding, cell medium was replaced with Hank's Balanced Salt Solution (HBSS) with or without menadione (10-25 uM), GAP, GAP vehicle (0.2 mM NaOH, pH 7.5), above-described additional test reagents, or combinations of GAP with additional test reagents or L-cystine esters alone, and incubated for additional 18 hours. For ROS detection, CellROX green (Life Tech, Thermo Fisher Scientific, Rockford, USA) reagent was added into each well to a final concentration of 15-25 uM and incubated for additional 2-4 hours at 37° C. in a humidified incubator. The ROS fluorescence was detected using a Tecan microplate reader (Excitation/Emission=490/525). Relative ROS production was calculated with normalization based on the vehicle control treatment which was set to 100%. Where indicated, percent protection was calculated as a comparison to menadione alone treatment, using the measured relative fluorescent units in the following equation: […]
ROS levels were evaluated together with cell viability because it is possible to get a false negative for ROS if treatment is so toxic, that at the time of assay, cells are dead (and there are no longer any detectable ROS). Decrease in ROS levels is meaningful if cells are still viable.

Human Keratinocytes [4] = experiment: Cell viability assay (CCK-8); type: cell-based; conditions: 18 hours; for viability at 20 µM / viability at 40 µM / viability at 80 µM / viability at 160 µM: Homo sapiens, Keratinocyte, read-out: Cell viability (% of vehicle control); for viability at 160 µM: 160 uM + menadione
Method: Human Keratinocytes (Promocell, Heidelberg, Germany) were maintained in EpiLife® keratinocyte medium containing 60 uM calcium chloride and 1% Human Keratinocyte Growth Supplement (HKGS). The medium was refreshed every other day. Subsequently, cells were trypsinized at 90% confluency and seeded at a density of 2×10^4 per well into 96-well transparent tissue culture plates. On the second day after seeding, cell medium was replaced with treatments as described above in ROS assay section. After 18 hours, […] (CCK-8) reagent (Dojindo, Kumamoto, Japan) was diluted 1:10 in HBSS and incubated with cells for 4 h at 37° C. in a humidified incubator. Optical absorption at 450 nm was measured using a Tecan Safire2 plate reader. Relative viability was calculated with normalization based on the vehicle control treatment, which was set to 100%.
Where indicated, percent protection was calculated as a comparison to menadione alone treatment, using the measured relative absorbance units in the following equation: […]

[5] = pH less than 2 or pH above 8; cited from earlier work

| SMILES | Glutathione Synthesis, % Protection (improvement vs. vehicle control + menadione) (Human Keratinocytes [2]; 80 uM + menadione) | activity at 20 µM (Human Keratinocytes [3]) | activity at 40 µM (Human Keratinocytes [3]) | activity at 80 µM (Human Keratinocytes [3]) | activity at 160 µM (Human Keratinocytes [3]) | viability at 20 µM (Human Keratinocytes [4]; 20 uM + menadione) | viability at 40 µM (Human Keratinocytes [4]; 40 uM + menadione) | viability at 80 µM (Human Keratinocytes [4]; 80 uM + menadione) | viability at 160 µM (Human Keratinocytes [4]) | Glutathione Synthesis, % Protection (improvement vs. vehicle control + menadione) (Human Keratinocytes [2]; 40 uM + menadione) | Glutathione Synthesis, Mean (μm glutathione) (Human Keratinocytes [2]; 40 uM + menadione) | ROS % Protection (improvement vs. vehicle control + menadione) (Human Keratinocytes [3]) | also measured |
| --- | --- | --- | --- | --- | --- | --- | --- | --- | --- | --- | --- | --- | --- |
| CCCCCCC(O)CCCCCCCCCCC(=O)O (stereo not shown) [12-Hydroxystearic Acid, 12-hydroxystearic acid] |  |  |  |  |  |  |  |  |  |  |  |  | inhibition at 4 µM ([1]; 12-Hydroxystearic Acid 4 uM, alone or with GAP): 7%; inhibition at 8 µM ([1]; 12-Hydroxystearic Acid 8 uM, alone or with GAP): 10% |
| COC(=O)[C@@H](N)CSSC[C@H](N)C(=O)OC.Cl.Cl [CDME, L-Cystine dimethyl ester dihydrochloride] | 31^1,2% | 108% | 111% | 114% | 97.9% | 90.9% | 93.1% | 87% | 106% |  |  |  |  |
| CCOC(=O)[C@@H](N)CSSC[C@H](N)C(=O)OCC.Cl.Cl [DEC, Diethyl L-cystinate dihydrochloride] |  | 233% | 212% | 234% | 254% | 110% | 127% | 132% | 122% | 13^1,2% | 0.54^1,2 μm | 38.0^1,2% |  |
| CC(C)(C)OC(=O)[C@@H](N)CSSC[C@H](N)C(=O)OC(C)(C)C.Cl.Cl [DTBC, Ditert-butyl L-cystinate dihydrochloride] | 1^1% | 367% | 324% | 269% | 221% | 78.1% | 75.9% | 73.6% | 104% | 0^1% | 0.17^1 μm | 2.2% | Glutathione Synthesis, Mean (μm glutathione) (Human Keratinocytes [2]; 80 uM + menadione): 0.19^1 μm; Cell viability % protection (improvement vs. vehicle control + menadione) (Human Keratinocytes [4]; 20 uM + menadione): 6.0^1%; Cell viability % protection (improvement vs. vehicle control + menadione) (Human Keratinocytes [4]; 40 uM + menadione): 3.0^1%; Cell viability % protection (improvement vs. vehicle control + menadione) (Human Keratinocytes [4]; 80 uM + menadione): −0.1^1% |
| CCCCCCc1ccc(O)cc1O [HR, 4-hexylresorcinol, reference compound] |  |  |  |  |  |  |  |  |  |  |  |  | inhibition at 10 µM ([1]; 10 uM): 39% |
| N[C@@H](CSSC[C@H](N)C(=O)O)C(=O)O [cystine] |  |  |  |  |  |  |  |  |  |  |  |  | solubility in aqueous solutions [5]: more soluble |
